The values below come from patent US20160319367A1, “MEANS AND METHODS FOR TYPING A BREAST CANCER PATIENT AND ASSIGNING THERAPY BASED ON THE TYPING” (STICHTING HET NEDERLANDS KANKER INSTITUUT-ANTONI VAN …, priority 2013, published 2016).

SMILES strings stand for the structures.

Test [1] concerns ZR-75-1 cells. The test is described as follows: RNA-seq global gene expression analysis in ZR-75-1 cells. In kind it is cell-based, human. As to conditions: hormone depletion for 72 hours, treated for 48 hours, RNAseq, p<0.05. The procedure: Transcriptome sequencing analysis of the cell line ZR-75-1 with stable USP9X knockdown or a control vector were performed using RNA-Seq. The reads (14-30 million 50 bp single-end) were mapped to the human reference genome (hg19) using TopHat (Trapnell et al., 2009. Bioinformatics 25: 1105-1127), which allows to span exon-exon splice junctions. TopHat was supplied with a known set of gene models (Ensembl version 64). The open-source tool HTSeq-Count was used to obtain gene expressions. This tool generates a list of the total number of uniquely mapped sequencing reads for each gene that is present in the provided Gene Transfer Format (GTF) file. In order to identify differentially expressed genes, the random sampling model in the R package […] al., 2010. Bioinformatics 26: 136-8.28) was used. […] The input of this method is the absolute number of reads for a gene, which is the output of HTSeq-count. Genes with no expression across both samples in the comparison were discarded from the dataset. The expression levels of the remaining genes were added with 1 in order to avoid negative values after log 2 transformation during the normalization step within this method. […] We therefore asked whether USP9X knockdown in tamoxifen-treated cells would also give rise to a typical estradiol-responsive gene set. […]

Test [2] relates to ERα. The test is described as follows: ERα ChIP-seq (ERα/chromatin interactions) in ZR-75-1 cells. Type of test: cell-based, human. As to conditions: control ZR-75-1 cells (pRS-GFP), hormone depleted 72 hours, ligand for 48 hours.
Description: Chromatin Immunoprecipitations (ChIP) were performed as described before (Schmidt et al., 2009. Methods 48: 240-8). For each ChIP, 10 μg of antibody was used, and 100 μl of Protein A magnetic beads (Invitrogen). The antibody used was raised against ERα (SC-543; Santa Cruz).
ChIP DNA was amplified as described (Schmidt et al., 2009. Methods 48: 240-8). Sequences were generated by the Illumina Hiseq 2000 genome analyser (using 50 bp reads), and aligned to the Human Reference Genome (assembly hg19, February 2009). Enriched regions of the genome were identified by comparing the ChIP samples to mixed input using the MACS peak caller (Zhang et al., 2008. Genome Biol 9: R137) version 1.3.7.1.
ChIP-seq data snapshots were generated using the Integrative Genome Viewer IGV 2.1 (www.broadinstitute.org/igv/). Motif analyses were performed through the Cistrome (cistrome.org), applying the SeqPos motif tool (He et al., 2010. Nat Genet 42: 343-7). The genomic distributions of binding sites were analysed using the cis-regulatory element annotation system (CEAS) (Ji et al., 2006. Nucleic Acids Res 34: W551-4). The genes closest to the binding site on both strands were analysed. If the binding region is within a gene, CEAS software indicates whether it is in a 5′UTR, a 3′UTR, a coding exon, or an intron. Promoter is defined as 3 kb upstream from RefSeq 5′ start. […]
For test [3], the system named is ZR-75-1 cells. Description: Colony formation / proliferation assay in ZR-75-1 cells. Type of test: cell-based, human. The note with it: 1 μM 4OH-tamoxifen or 10^-7 M fulvestrant. The procedure:
The human breast cancer cell lines ZR-75-1 (ATCC CRL-1500), MDA-MB-231 (ATCC HTB-26) and T47D (ATCC HTB133) were cultured in DMEM supplemented with 10% FCS, 2 mM glutamine, 100 μg/ml penicillin, 100 μg/ml streptomycin, and 1 nM estradiol at 37° C. in 5% CO2. […] Phoenix cells (ATCC CRL-3214) were cultured at 37° C. in 5% CO2 in DMEM with 10% FCS, 2 mM glutamine, 100 μg/ml penicillin, and 100 μg/ml streptomycin.
Cells were infected with retroviral supernatant and selected with puromycin (2.0 μg/ml). […] When colonies appeared, cells were fixed in MeOH/HAc (3:1) and subsequently stained with 50% MeOH/10% HAc/0.1% Coomassie.

The conditions of test [4]: cited from earlier work.
[5] abbreviates: early breast cancer, 5 years of adjuvant treatment.

On to `CC/C(=C(\c1ccc(O)cc1)c1ccc(OCCN(C)C)cc1)c1ccccc1` [4OH-tamoxifen], for which the “number of genes with altered expression as compared to vehicle” value in test [1] is given as 1906 genes. Moreover, the ERα/chromatin interactions result in test [2] is “far less pronounced”.

As to `C[C@]12CC[C@@H]3c4ccc(O)cc4CC[C@H]3[C@@H]1CC[C@@H]2O` [estradiol], in test [1], the “number of genes with altered expression as compared to vehicle” value turned out to be 8794 genes.

Turning to `C[C@]12CC[C@@H]3c4ccc(O)cc4C[C@@H](CCCCCCCCC[S+]([O-])CCCC(F)(F)C(F)(F)F)[C@H]3[C@@H]1CC[C@@H]2O` (stereo partly drawn) [fulvestrant, (7α,17β)-7-{9-[(4,4,5,5,5-pentafluoropentyl)sulfinyl]nonyl}estra-1,3,5(10)-triene-3,17-diol], in test [3], the cell proliferation result is given as “proliferation arrest”.

As for `CC/C(=C(\c1ccccc1)c1ccc(OCCN(C)C)cc1)c1ccccc1.O=C(O)CC(O)(CC(=O)O)C(=O)O` [tamoxifen, (Z)2-[4-(1,2-diphenyl-1-butenyl)phenoxy]-N, N-dimethylethanamine 2-hydroxy-1,2,3-propanetricarboxylate (1:1)], in test [4] (setting [5]), the “rate of disease recurrence” value is “almost halves” and the “reduction of annual breast cancer death rate” value is “one-third”. The “women who still develop recurrent disease despite adjuvant treatment” value in test [4] (in the next 15 years) was “one-third”.
